From PubChem BioAssay AID328 (DTP/NCI, 2004)
Where “and” joins values, the source holds several entries; their conditions need not be identical. Equal entries are not always repeated. Toxic doses and inconclusive results are not listed. Starred links: 1 amine or outer side, 2 acyl side, 3 side chain; linkers in the order of their positions; H or OH if unused. Positions of bridges follow the written chain, without caps; N, C: chain ends. Non-standard residues stand in square brackets, D forms with d. Residues, ends and D or L forms follow the SMILES beside them. Chains are numbered I, II in the order given. Actinocin(9to1) = Cc1c2oc3c(C)ccc(C(=O)[*:1])c3nc-2c(C(=O)[*:2])c(N)c1=O; aThr = C[C@H](O)[C@H](N)C(=O)O; NMeV = CN[C@H](C(=O)O)C(C)C; Sar = CNCC(=O)O

Tested on: BDF1 mice, P388 leukemia ip, median survival T/C
Assay: NCI In Vivo Anticancer Drug Screen. Data for tumor model P388 Leukemia (intraperitoneal) in B6D2F1 (BDF1) mice
Conditions: endpoint: median survival time, higher = longer survival
Summary of the method: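 T/C = treated-group survival ÷ vehicle-control survival; tumour transplanted into mice before dosing.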

Cc1c2oc3c(C)ccc(C(=O)N[C@@H]4C(=O)N[C@H](C(C)C)C(=O)N5CCC[C@H]5C(=O)N(C)CC(=O)N(C)[C@@H](C(C)C)C(=O)O[C@H]4C)c3nc-2c(C(=O)N[C@@H]2C(=O)N[C@H](C(C)C)C(=O)N3CCC[C@H]3C(=O)N(C)CC(=O)N(C)[C@@H](C(C)C)C(=O)O[C@H]2C)c(N)c1=O (I: [aThr][dV]P[Sar][NMeV] / II: [aThr][dV]P[Sar][NMeV]; ester I:1-I:C, II:1-II:C; linker I:N-II:N via Actinocin(9to1))
T/C (dose: 25.0 micrograms/kg/injection, schedule: Q03HX024 (ip), vehicle: saline): 263 % of control | T/C (dose: 25.0 micrograms/kg/injection, schedule: Q04DX003 (ip), vehicle: saline): 154 % of control | T/C (dose: 30.0 micrograms/kg/injection, schedule: Q03HX024 (ip), vehicle: saline): 250 % of control | T/C (dose: 35.0 micrograms/kg/injection, schedule: Q03HX024 (ip), vehicle: saline): 100 % of control | T/C (dose: 36.0 micrograms/kg/injection, schedule: Q01DX009 (ip), vehicle: saline + alcohol): 241 % of control and 314 % of control | T/C (dose: 37.5 micrograms/kg/injection, schedule: Q01DX009 (ip), vehicle: saline + alcohol): 228 % of control and 169 % of control | T/C (dose: 38.9 micrograms/kg/injection, schedule: Q04DX003 (ip), vehicle: saline + alcohol): 174 % of control | T/C (dose: 50.0 micrograms/kg/injection, schedule: Q01DX001 (ip), vehicle: saline): 154 % of control | T/C (dose: 50.0 micrograms/kg/injection, schedule: Q01DX009 (ip), vehicle: saline + alcohol): 281 % of control and 294 % of control and 191 % of control | T/C (dose: 50.0 micrograms/kg/injection, schedule: Q01DX009 (ip), vehicle: saline): 268 % of control and 271 % of control and 352 % of control | T/C (dose: 50.0 micrograms/kg/injection, schedule: Q01DX009 (ip), vehicle: water): 301 % of control and 106 % of control | T/C (dose: 50.0 micrograms/kg/injection, schedule: Q01DX010 (ip), vehicle: other): 295 % of control | T/C (dose: 50.0 micrograms/kg/injection, schedule: Q01DX010 (ip), vehicle: saline): 295 % of control and 300 % of control | T/C (dose: 50.0 micrograms/kg/injection, schedule: Q04DX003 (ip), vehicle: saline): 177 % of control | T/C (dose: 60.0 micrograms/kg/injection, schedule: Q01DX009 (ip), vehicle: saline + alcohol): 314 % of control and 348 % of control | T/C (dose: 64.8 micrograms/kg/injection, schedule: Q04DX003 (ip), vehicle: saline + alcohol): 168 % of control | T/C (dose: 75.0 micrograms/kg/injection, schedule: Q01DX009 (ip), vehicle: saline + alcohol): 292 % of control and 99 % of control | T/C (dose: 75.0 micrograms/kg/injection, schedule: Q01DX009 (ip), vehicle: saline): 100 % of control | T/C (dose: 75.0 micrograms/kg/injection, schedule: Q04DX003 (ip), vehicle: saline + alcohol): 247 % of control | T/C (dose: 75.0 micrograms/kg/injection, schedule: Q04DX003 (ip), vehicle: saline): 257 % of control and 182 % of control | T/C (dose: 75.0 micrograms/kg/injection, schedule: Q04DX003 (ip), vehicle: water): 183 % of control | T/C (dose: 100.0 micrograms/kg/injection, schedule: Q01DX001 (ip), vehicle: saline): 168 % of control | T/C (dose: 100.0 micrograms/kg/injection, schedule: Q01DX009 (ip), vehicle: saline): 91 % of control and 107 % of control | T/C (dose: 100.0 micrograms/kg/injection, schedule: Q01DX009 (ip), vehicle: water): 336 % of control | T/C (dose: 100.0 micrograms/kg/injection, schedule: Q01DX010 (ip), vehicle: saline): 105 % of control and 120 % of control | T/C (dose: 100.0 micrograms/kg/injection, schedule: Q04DX003 (ip), vehicle: saline): 231 % of control | T/C (dose: 112.5 micrograms/kg/injection, schedule: Q04DX003 (ip), vehicle: saline + alcohol): 274 % of control and 161 % of control | T/C (dose: 150.0 micrograms/kg/injection, schedule: Q04DX003 (ip), vehicle: saline): 273 % of control and 306 % of control | T/C (dose: 200.0 micrograms/kg/injection, schedule: Q01DX001 (ip), vehicle: saline): 177 % of control | T/C (dose: 200.0 micrograms/kg/injection, schedule: Q01DX010 (ip), vehicle: saline): 90 % of control | T/C (dose: 225.0 micrograms/kg/injection, schedule: Q04DX003 (ip), vehicle: saline + alcohol): 290 % of control and 327 % of control and 182 % of control | T/C (dose: 300.0 micrograms/kg/injection, schedule: Q04DX003 (ip), vehicle: saline): 361 % of control | T/C (dose: 300.0 micrograms/kg/injection, schedule: Q04DX003 (ip), vehicle: water): 232 % of control | T/C (dose: 400.0 micrograms/kg/injection, schedule: Q01DX001 (ip), vehicle: saline): 227 % of control | T/C (dose: 400.0 micrograms/kg/injection, schedule: Q04DX003 (ip), vehicle: saline): 236 % of control | T/C (dose: 600.0 micrograms/kg/injection, schedule: Q04DX003 (ip), vehicle: saline + alcohol): 118 % of control | T/C (dose: 600.0 micrograms/kg/injection, schedule: Q04DX003 (ip), vehicle: water): 189 % of control
